Measured values published in BindingDB's records for doi:10.1111/j.1747-0285.2010.01011.x (University of Mainz, 2010).

The compounds below were run against 5-hydroxytryptamine receptor 2A (Homo sapiens, UniProt P28223) (assay: Competition Binding Assay). Conditions: pH 7.4; 37 °C.
5-hydroxytryptamine receptor 2A, sequence (P28223 whole entry): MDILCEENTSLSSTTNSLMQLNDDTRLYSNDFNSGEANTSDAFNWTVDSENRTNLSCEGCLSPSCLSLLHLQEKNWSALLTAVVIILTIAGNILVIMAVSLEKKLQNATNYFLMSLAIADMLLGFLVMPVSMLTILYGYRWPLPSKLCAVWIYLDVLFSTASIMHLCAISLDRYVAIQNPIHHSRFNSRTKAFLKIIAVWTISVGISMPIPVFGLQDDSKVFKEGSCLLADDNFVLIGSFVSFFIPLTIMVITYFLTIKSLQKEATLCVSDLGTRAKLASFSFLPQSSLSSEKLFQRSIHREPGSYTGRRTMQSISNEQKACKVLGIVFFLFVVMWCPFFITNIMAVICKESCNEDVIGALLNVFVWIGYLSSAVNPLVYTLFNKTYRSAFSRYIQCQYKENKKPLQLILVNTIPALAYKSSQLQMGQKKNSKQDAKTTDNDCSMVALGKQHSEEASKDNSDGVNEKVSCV
Method: 5-HT-2A receptor affinity was determined by a radioligand competition binding assay with GF-62 cells, a clonal cell line expressing high amounts of 5-HT-2A receptors.
Compound `COc1cccc(C(O)C2CCN(CCn3c(=S)[nH]c4ccccc4c3=O)CC2)c1OC` (centres undefined) [3-(2-{4-[(2,3-dimethoxyphenyl)(hydroxy)methyl]piperidin-1-yl}ethyl)-2-sulfanylidene-1,2,3,4-tetrahydroquinazolin-4-one, 4b] has a Ki of 390 nM.
In the case of `COc1cccc(C(=O)C2CCN(CCn3c(=S)[nH]c4ccccc4c3=O)CC2)c1OC` [3-(2-{4-[(2,3-dimethoxyphenyl)carbonyl]piperidin-1-yl}ethyl)-2-sulfanylidene-1,2,3,4-tetrahydroquinazolin-4-one, 4a], the Ki is reported as 411 nM.
Work on `COc1c(OCCF)cccc1C(O)C1CCN(CCn2c(=S)[nH]c3ccccc3c2=O)CC1` (centres undefined) [3-[2-(4-{[3-(2-fluoroethoxy)-2-methoxyphenyl](hydroxy)methyl}piperidin-1-yl)ethyl]-2-sulfanylidene-1,2,3,4-tetrahydroquinazolin-4-one, 4c] yielded a Ki of 356 nM.
In the case of `COc1c(OCCF)cccc1/C(=N/OCCN(C)C)C1CCN(CCc2ccc(F)cc2)CC1` [(E)-[2-(dimethylamino)ethoxy]({[3-(2-fluoroethoxy)-2-methoxyphenyl]({1-[2-(4-fluorophenyl)ethyl]piperidin-4-yl})methylidene})amine, 8], the Ki is reported as 57 nM.
